Eight compounds from patent publication US20010038824A1, “Intranasal cyclic peptide formulations” (priority 2000, published 2001) can be followed below.

Common to all, as to assay type: cell-based
One data set concerns mouse hepatocytes. In words: In vitro hepatotoxicity test. The note with it: mouse hepatocyte monolayers, 1 day exposure, morphological evaluation. The text has this: The mouse hepatocytes were isolated by a collagenase digestion and cultured in microtest plates. The hepatocyte monolayers were exposed to the test Aerothricins in the culture system for 1 day. After the culture period, the hepatocytes were observed under a microscope and evaluated morphologically. The degree of the morphological alteration (degeneration) of the hepatocytes by the test Aerothricins were compared with WF11243 and LY303366.

In a further data set the test system is Candida albicans CY1002. The experiment in a line: In vitro antifungal activity, broth micro-dilution. The note with it: YNB medium, 1-2 days at 35° C. How it is done: (§1) The in vitro antifungal activities of the representative Aerothricins of the present study were evaluated by determining the 50% inhibitory concentration (IC50), which was calculated as the lowest concentration of an antifungal to inhibit the growth of fungus to […] turbidity compared with the drug-free control growth spectrophotometrically.
(§2) The IC50 values were determined by the broth micro-dilution procedure based on NCCLS Approved Standard with the following minor modifications (National Committee for Clinical Laboratory Standards. (1997) Reference method for broth dilution antifungal susceptibility testing for yeasts. Approved standard. Document M27-A). Yeast Nitrogen Base (YNB; Difco Lab.) supplemented with 1% glucose and 0.25% K2HPO4 was used as testing medium for yeast, the same medium solidified with 0.2% low melting point agarose (BRL) was used for filamentous fungi. Inoculum size was 1-3×10^4 cells/ml, and incubation was performed for 1-2 days at 35° C.
On the technique in general: Broth dilution looks for growth in wells or tubes with falling amounts of substance.

Another data set relates to Fusarium solani CF1088. In words: In vitro antifungal activity, broth micro-dilution. As to conditions: YNB medium with 0.2% agarose, 1-2 days at 35° C. As for the experimental part: as §1, §2
The subject of data set [1] is Aspegillus fumigatus CF1003. In words: In vitro antifungal activity, broth micro-dilution. As to conditions: YNB medium with 0.2% agarose, 1-2 days at 35° C. As for the experimental part:
as §1, §2

Molecules are shown by their SMILES. Numbered stars: 1 amine (or outer) side, 2 acyl side, 3 side chain; on linkers, the order of the positions; unused ones are H or OH. Bridge positions count the residues as written; N and C are the ends. Square brackets hold non-standard residues; d marks the D form. Peptide text beside a SMILES is read from it. * marks the point of attachment. ξ: configuration not given here. X5 = CC(C)CCCOc1ccc(-c2ccc(CC[C@H](CC(=O)[*:1])N[*:2])cc2)cc1; X11 = CCCCCOc1ccc(-c2ccc(CC[C@H](CC(=O)[*:1])N[*:2])cc2)cc1; X8 = CCCCCCCCCOc1ccc2cc(CC[C@H](CC(=O)[*:1])N[*:2])ccc2c1; Orn(Nα,Nα-(2-aminoethyl)2) = NCCC[C@@H](C(=O)*)N(CCN)CCN; ξTyr(3-NO2) = NC(Cc1ccc(O)c([N+](=O)[O-])c1)C(=O)O; X15 = CCCCCCCCCCCCCCC[C@H](CC(=O)[*:2])N(C)[*:1]; X4 = CCCCCCCCCCCCC[C@H](CC(=O)[*:1])O[*:2]; X3 = NCCCN(CCCC(N[*:1])C(=O)[*:2])[*:3]; X2 = NC(=O)CC(O)C(N[*:1])C(=O)[*:2]; X12 = CN(C)CCCC(N[*:1])C(=O)[*:2]; X1 = O=C(C1C(O)CCN1[*:1])[*:2]; ξY = NC(Cc1ccc(O)cc1)C(=O)O; X14 = NCCCNC(CCCN)C(=O)*; X13 = CCCCCCCCCCCCCCCN*; ξHyp = O=C(O)C1CC(O)CN1; ξOrn = NCCCC(N)C(=O)O; ξT = CC(O)C(N)C(=O)O; ξV = CC(C)C(N)C(=O)O; ξA = CC(N)C(=O)O Where only a bound is given, the exact number is not on record here.

With `CC(C)CCCOc1ccc(-c2ccc(CC[C@@H]3CC(=O)NC(C(C)O)C(=O)NC(C)C(=O)NC(Cc4ccc(O)cc4)C(=O)NC(C(C)C)C(=O)N4CC(O)CC4C(=O)NC(C(C)O)C(=O)NC(C(C)O)C(=O)N4CCC(O)C4C(=O)NC(C(O)CC(N)=O)C(=O)NCC(=O)NC(C(C)O)C(=O)NC(CCCN)C(=O)N3)cc2)cc1` (stereo partly drawn) [Aerothricin 45] ([ξT][ξA][ξY][ξV][ξHyp][ξT][ξT][X1][X2]G[ξT][ξOrn]; linker N-C via X5), the Cytotoxicity to hepatocyte in the data set with mouse hepatocytes was more than 100 µg/mL.
Take `CCCCCCCCCOc1ccc2cc(CC[C@@H]3CC(=O)NC(C(C)O)C(=O)NC(C)C(=O)NC(Cc4ccc(O)cc4)C(=O)NC(C(C)C)C(=O)N4CC(O)CC4C(=O)NC(C(C)O)C(=O)NC(C(C)O)C(=O)N4CCC(O)C4C(=O)NC(C(O)CC(N)=O)C(=O)NCC(=O)NC(C(C)O)C(=O)NC(CCCN)C(=O)N3)ccc2c1` (stereo partly drawn) [Aerothricin 53] ([ξT][ξA][ξY][ξV][ξHyp][ξT][ξT][X1][X2]G[ξT][ξOrn]; linker N-C via X8): the Cytotoxicity to hepatocyte in the data set with mouse hepatocytes was more than 100 µg/mL.
As for `CCCCCOc1ccc(-c2ccc(CC[C@@H]3CC(=O)NC(C(C)O)C(=O)NC(C)C(=O)NC(Cc4ccc(O)c([N+](=O)[O-])c4)C(=O)NC(C(C)C)C(=O)N4CC(O)CC4C(=O)NC(C(C)O)C(=O)NC(C(C)O)C(=O)N4CCC(O)C4C(=O)NC(C(O)CC(N)=O)C(=O)NCC(=O)NC(C(C)O)C(=O)NC(CCCN)C(=O)N3)cc2)cc1` (stereo partly drawn) [Aerothricin 54] ([ξT][ξA][ξTyr(3-NO2)][ξV][ξHyp][ξT][ξT][X1][X2]G[ξT][ξOrn]; linker N-C via X11), the “In vitro Antifungal activity, IC50, Candida albicans CY1002” value with Candida albicans CY1002 was 0.15 µg/mL. For the same compound, the “In vitro Antifungal activity, IC50, Fusarium solani CF1088” value in the data set on Fusarium solani CF1088 was 0.74 µg/mL. For the same compound, the “In vitro Antifungal activity, IC50, Aspegillus fumigatus CF1003” value in data set [1] is 0.17 µg/mL.
As to `CCCCCCCCCCCCCCCNC(=O)[C@@H]1CC(=O)NC(C(C)O)C(=O)NC(C)C(=O)NC(Cc2ccc(O)cc2)C(=O)NC(C(C)C)C(=O)N2CC(O)CC2C(=O)NC(C(C)O)C(=O)NC(C(C)O)C(=O)N2CCC(O)C2C(=O)NC(C(O)CC(N)=O)C(=O)NCC(=O)NC(C(C)O)C(=O)NC(CCCN(C)C)C(=O)N1` (stereo partly drawn) [Aerothricin 75] ([ξT][ξA][ξY][ξV][ξHyp][ξT][ξT][X1][X2]G[ξT][X12]D-X13; lactam N-13), the “In vitro Antifungal activity, IC50, Candida albicans CY1002” value with Candida albicans CY1002 is 0.15 µg/mL. In the data set on Fusarium solani CF1088, the “In vitro Antifungal activity, IC50, Fusarium solani CF1088” value was 1.40 µg/mL. Moreover, the “In vitro Antifungal activity, IC50, Aspegillus fumigatus CF1003” value in data set [1] came out at 0.10 µg/mL.
In the case of `CCCCCCCCCCCCCCCNC(=O)[C@@H]1CC(=O)NC(C(C)O)C(=O)NC(C)C(=O)NC(Cc2ccc(O)c([N+](=O)[O-])c2)C(=O)NC(C(C)C)C(=O)N2CC(O)CC2C(=O)NC(C(C)O)C(=O)NC(C(C)O)C(=O)N2CCC(O)C2C(=O)NC(C(O)CC(N)=O)C(=O)NCC(=O)NC(C(C)O)C(=O)NC(CCCN)C(=O)N1` (stereo partly drawn) [Aerothricin 77] ([ξT][ξA][ξTyr(3-NO2)][ξV][ξHyp][ξT][ξT][X1][X2]G[ξT][ξOrn]D-X13; lactam N-13), the “In vitro Antifungal activity, IC50, Candida albicans CY1002” value in the data set with Candida albicans CY1002 worked out at 0.13 µg/mL. The “In vitro Antifungal activity, IC50, Fusarium solani CF1088” value in the data set with Fusarium solani CF1088 amounted to 0.67 µg/mL. Also, in data set [1], the “In vitro Antifungal activity, IC50, Aspegillus fumigatus CF1003” value stood at 0.10 µg/mL.
Taken in the same sequence, the figures for `CCCCCCCCCCCCCCC[C@@H]1CC(=O)NC(C(C)O)C(=O)NC(C)C(=O)NC(Cc2ccc(O)cc2)C(=O)NC(C(C)C)C(=O)N2CC(O)CC2C(=O)NC(C(C)O)C(=O)NC(C(C)O)C(=O)N2CCC(O)C2C(=O)NC(C(O)CC(N)=O)C(=O)NCC(=O)NC(C(C)O)C(=O)NC(CCCN)C(=O)N1C` (stereo partly drawn) [Aerothricin 95] (cyclo(G[ξT][ξOrn][X15][ξT][ξA][ξY][ξV][ξHyp][ξT][ξT][X1][X2])) were 0.14 µg/mL, 0.74 µg/mL and 0.10 µg/mL.
Compound `CCCCCCCCCCCCC[C@@H]1CC(=O)NC(C(C)O)C(=O)NC(C)C(=O)NC(Cc2ccc(O)cc2)C(=O)NC(C(C)C)C(=O)N2CC(O)CC2C(=O)NC(C(C)O)C(=O)NC(C(C)O)C(=O)N2CCC(O)C2C(=O)NC(C(O)CC(N)=O)C(=O)NCC(=O)NC(C(C)O)C(=O)NC(CCCN(CCCN)C(=O)[C@H](CCCN)N(CCN)CCN)C(=O)O1` (stereo partly drawn) [Aerothricin 134] ([ξT][ξA][ξY][ξV][ξHyp][ξT][ξT][X1][X2]G[ξT][X3](Orn(Nα,Nα-(2-aminoethyl)2)); linker N-C via X4) gave a Cytotoxicity to hepatocyte with mouse hepatocytes of more than 100 µg/mL.
Turning to `CCCCCCCCCCCCC[C@@H]1CC(=O)NC(C(C)O)C(=O)NC(C)C(=O)NC(Cc2ccc(O)cc2)C(=O)NC(C(C)C)C(=O)N2CC(O)CC2C(=O)NC(C(C)O)C(=O)NC(C(C)O)C(=O)N2CCC(O)C2C(=O)NC(C(O)CC(N)=O)C(=O)NCC(=O)NC(C(C)O)C(=O)NC(CCCN(CCCN)C(=O)C(CCCN)NCCCN)C(=O)O1` (stereo partly drawn) [Aerothricin 136] ([ξT][ξA][ξY][ξV][ξHyp][ξT][ξT][X1][X2]G[ξT][X3](X14); linker N-C via X4), the “In vitro Antifungal activity, IC50, Candida albicans CY1002” value in the data set with Candida albicans CY1002 turned out to be 0.20 µg/mL. In the data set with Fusarium solani CF1088, the “In vitro Antifungal activity, IC50, Fusarium solani CF1088” value was 0.04 µg/mL. For the same compound, in data set [1], the “In vitro Antifungal activity, IC50, Aspegillus fumigatus CF1003” value was 0.28 µg/mL.
